For one assay, the target named is T1, Lck(h) (Homo sapiens, UniProt P06239).
T1 construct: purchased Upstate Biotechnology (Dundee, UK), KinaseProfiler service
Put plainly: KinaseProfiler assay (Upstate), Lck. It is filed as biochemical. As for the experimental part:
(§1) Further enzyme assays were conducted at Upstate Biotechnology (Dundee, UK) in the KinaseProfiler™ Assay system.
(§2) The general protocol is as follows. All kinases are pre-diluted to a 10× working concentration prior to addition into the assay. The composition of the dilution buffer for the kinases is 20 mM MOPS pH 7.0, 1 mM EDTA, 0.1% β-mercaptoethanol, 0.01% Brij-35, 5% glycerol, 1 mg/ml BSA. All substrates are dissolved and diluted to working stocks in de-ionised water.
In a final reaction volume of 25 μl, Lck (h) (5-10 mU) is incubated with 50 mM Tris pH 7.5, 0.1 mM EGTA, 0.1 mM Na3VO4, 250 μM […] (Cdc2 peptide), 10 mM MgAcetate and [γ-33P-ATP] (specific activity approx. 500 cpm/pmol, concentration as required). The reaction is initiated by the addition of the MgATP mix. After incubation for 40 minutes at room temperature, the reaction is stopped by the addition of 5 μl of a 3% phosphoric acid solution. 10 μl of the reaction is then spotted onto a P30 filtermat and washed three times for 5 minutes in 75 mM phosphoric acid and once in methanol prior to drying and scintillation counting.

For another assay, the target named is T2, cSRC(h) (Homo sapiens, UniProt P12931).
T2 construct: purchased Upstate Biotechnology (Dundee, UK), KinaseProfiler service
Put plainly: KinaseProfiler assay (Upstate), cSRC. It is filed as biochemical. As for the experimental part:
as §1, §2

Another assay has as its target T3, EphA2(h) (Homo sapiens, UniProt P29317).
T3 construct: purchased Upstate Biotechnology (Dundee, UK), KinaseProfiler service
Put plainly: KinaseProfiler assay (Upstate), EphA2. The class given is biochemical. The protocol: as §1, §2
In a final reaction volume of 25 EphA2 (h) (5-10 mU) is incubated with 8 mM MOPS pH 7.0, 0.2 mM EDTA, 0.1 mg/ml poly(Glu, Tyr) 4:1, 10 mM MgAcetate and [γ-33P-ATP] (specific activity approx. 500 cpm/pmol, concentration as required). The reaction is initiated by the addition of the MgATP mix. After incubation for 40 minutes at room temperature, the reaction is stopped by the addition of 5 μl of a 3% phosphoric acid solution. 10 μl of the reaction is then spotted onto a Filtermat A and washed three times for 5 minutes in 75 mM phosphoric acid and once in methanol prior to drying and scintillation counting.

The next assay has as its target T4, KDR protein kinase (Homo sapiens, UniProt P35968).
T4 construct: purchased Millipore 14-630M
Put plainly: Alphascreen protein tyrosine kinase assay, KDR. The class given is biochemical. The protocol: (§3) For screening purposes, compounds were diluted in 96 well plates at a concentration of 20 μM. Plates were warmed at 37° C. for 30 minutes before assay.
FLT-3 and PDGFR β tyrosine kinase enzymes were purchased from Upstate Cell Signalling Solutions, CA, USA (flt-3 catalog #: 14-500 and PDGFR β catalog #: 14-463). KDR protein kinase enzyme was purchased from Millipore (catalogue #14-630M).
Kinase assays were performed in 384 well Optiplates (Packard) using an Alphascreen Protein Tyrosine Kinase kit. […] The biotinylated peptides Biotin-[…]-NH2 for c-KIT and PDGFRβ and Biotin-[…]-NH2 for CSF1-R and FLT-3 (final concentration 0.1-3 μM) were used as substrates. Alphascreen phosphotyrosine acceptor beads followed by streptavidin donor beads were added under subdued light. The Alphascreen plates were read on a Packard Fusion Alpha. Inhibitors were added to the assays thirty minutes prior to the addition of ATP. Inhibitors were added in aqueous DMSO, with DMSO concentrations never exceeding 1%.
In general terms: In Alpha technology, singlet oxygen from a donor bead excites a nearby acceptor bead.

The target of assay [1] is T5, kinase domain of human c-kit (Homo sapiens, UniProt P10721).
T5 construct: from codon M552 to end; made in house; host or cells: Sf9 insect cells (baculovirus)
Put plainly: Alphascreen protein tyrosine kinase assay, c-KIT. The class given is biochemical. As for the experimental part: as §3
The kinase domain of human c-kit from codon M552 to end was cloned into the pDEST-20 expression vector (Invitrogen). The c-kit plasmid was then transformed into competent DH10Bac cells (Gibco), and the recombinant baculovirus produced prepared for transfection into Sf9 insect cells.
Baculovirus preparations from each of construct were infected into five liters of SF9 cells (Invitrogen) grown in SF-900 medium (Invitrogen) to a cell density of approximately 1−2×10^6 cells/ml. […] Cells were harvested and lysed. Tyrosine kinase domains were purified by affinity chromatography on a glutathione-agarose column (Scientifix Pty. Ltd. catalog #: GSH-200).
Kinase assays were performed in 384 well Optiplates (Packard) using an Alphascreen Protein Tyrosine Kinase kit. […] Alphascreen phosphotyrosine acceptor beads followed by streptavidin donor beads were added under subdued light. The Alphascreen plates were read on a Packard Fusion Alpha. Inhibitors were added to the assays thirty minutes prior to the addition of ATP. Inhibitors were added in aqueous DMSO, with DMSO concentrations never exceeding 1%.

The next assay concerns mNFS-60. Put plainly: Cellular assay (Alamar Blue), mNFS-60 with human M-CSF. It is filed as cell-based. The following applies: human M-CSF at 20 ng/ml, 72 hr. The protocol:
Cells for the assays were prepared by harvesting cells from culture, and then diluting them in the appropriate growth medium to between 40,000 cell/mL and 600,000 cell/mL, depending on the cell line.
The compounds to be tested were added (104, 10× final concentration) to a flat bottomed 96-well plate. The cellular suspension (80 μL per well) was added, and one hour later the growth factor was added (human M-CSF at 20 ng/ml for mNFS-60, mouse IL-3 at 5 ng/ml for Baf3-WT). The plate was then incubated for 72 hr at 37° C., 5% CO2. Alamar Blue (10^4 per well) was added and the plates returned to the incubator for a further 4-8 hours.
The plates were then read using a fluorescence plate reader at excitation 544 nm and emission 590 nm.
In general terms: Alamar Blue is a resazurin reagent that responds to reducing activity.

The next assay concerns the target T6, PDGFR β tyrosine kinase (Homo sapiens, UniProt P09619).
T6 construct: purchased Upstate Cell Signalling Solutions, CA, USA 14-463
Put plainly: Alphascreen protein tyrosine kinase assay, PDGFRβ. The class given is biochemical.

The source of these data is patent publication US9029386B2, “Pyridine derivatives useful as kinase inhibitors” (YM Biosciences Australia Pty Ltd, priority 2006, dated 2015).

As usually defined, the inhibition is the relative decrease from the control value, in per cent. Broadly, the IC50 is the point on the concentration scale where inhibition reaches its midpoint. A low value points to higher potency.

Each structure is given as a SMILES string.

T1 sequence (P06239 whole entry): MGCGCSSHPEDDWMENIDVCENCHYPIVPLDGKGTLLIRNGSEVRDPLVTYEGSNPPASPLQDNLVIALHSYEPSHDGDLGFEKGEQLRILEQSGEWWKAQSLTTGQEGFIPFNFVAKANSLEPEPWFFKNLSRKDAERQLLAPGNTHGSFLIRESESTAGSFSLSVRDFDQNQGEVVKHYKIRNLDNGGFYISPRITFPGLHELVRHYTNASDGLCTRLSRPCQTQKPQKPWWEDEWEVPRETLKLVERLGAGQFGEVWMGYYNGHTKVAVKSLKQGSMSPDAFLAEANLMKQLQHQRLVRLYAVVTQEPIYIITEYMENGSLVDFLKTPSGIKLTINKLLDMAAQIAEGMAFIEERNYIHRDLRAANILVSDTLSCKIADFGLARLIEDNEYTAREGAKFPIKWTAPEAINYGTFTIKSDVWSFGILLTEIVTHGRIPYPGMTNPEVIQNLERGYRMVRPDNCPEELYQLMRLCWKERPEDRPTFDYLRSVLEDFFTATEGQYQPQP
T2 sequence (P12931 whole entry): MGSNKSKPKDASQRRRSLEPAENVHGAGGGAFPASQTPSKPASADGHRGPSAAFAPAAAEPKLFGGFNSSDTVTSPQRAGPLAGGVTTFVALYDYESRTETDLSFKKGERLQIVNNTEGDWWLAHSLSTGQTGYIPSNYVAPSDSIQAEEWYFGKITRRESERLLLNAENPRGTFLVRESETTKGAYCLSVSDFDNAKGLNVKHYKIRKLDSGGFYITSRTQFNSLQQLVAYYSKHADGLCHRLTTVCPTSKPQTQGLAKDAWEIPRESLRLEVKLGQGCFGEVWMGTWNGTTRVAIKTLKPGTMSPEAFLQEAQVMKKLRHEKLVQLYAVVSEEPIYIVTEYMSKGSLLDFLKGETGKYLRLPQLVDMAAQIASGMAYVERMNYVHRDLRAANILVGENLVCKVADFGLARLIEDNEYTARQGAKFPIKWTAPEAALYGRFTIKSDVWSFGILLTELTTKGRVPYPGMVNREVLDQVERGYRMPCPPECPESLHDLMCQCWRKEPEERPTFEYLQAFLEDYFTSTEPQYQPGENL
T4 sequence (P35968 20-1356): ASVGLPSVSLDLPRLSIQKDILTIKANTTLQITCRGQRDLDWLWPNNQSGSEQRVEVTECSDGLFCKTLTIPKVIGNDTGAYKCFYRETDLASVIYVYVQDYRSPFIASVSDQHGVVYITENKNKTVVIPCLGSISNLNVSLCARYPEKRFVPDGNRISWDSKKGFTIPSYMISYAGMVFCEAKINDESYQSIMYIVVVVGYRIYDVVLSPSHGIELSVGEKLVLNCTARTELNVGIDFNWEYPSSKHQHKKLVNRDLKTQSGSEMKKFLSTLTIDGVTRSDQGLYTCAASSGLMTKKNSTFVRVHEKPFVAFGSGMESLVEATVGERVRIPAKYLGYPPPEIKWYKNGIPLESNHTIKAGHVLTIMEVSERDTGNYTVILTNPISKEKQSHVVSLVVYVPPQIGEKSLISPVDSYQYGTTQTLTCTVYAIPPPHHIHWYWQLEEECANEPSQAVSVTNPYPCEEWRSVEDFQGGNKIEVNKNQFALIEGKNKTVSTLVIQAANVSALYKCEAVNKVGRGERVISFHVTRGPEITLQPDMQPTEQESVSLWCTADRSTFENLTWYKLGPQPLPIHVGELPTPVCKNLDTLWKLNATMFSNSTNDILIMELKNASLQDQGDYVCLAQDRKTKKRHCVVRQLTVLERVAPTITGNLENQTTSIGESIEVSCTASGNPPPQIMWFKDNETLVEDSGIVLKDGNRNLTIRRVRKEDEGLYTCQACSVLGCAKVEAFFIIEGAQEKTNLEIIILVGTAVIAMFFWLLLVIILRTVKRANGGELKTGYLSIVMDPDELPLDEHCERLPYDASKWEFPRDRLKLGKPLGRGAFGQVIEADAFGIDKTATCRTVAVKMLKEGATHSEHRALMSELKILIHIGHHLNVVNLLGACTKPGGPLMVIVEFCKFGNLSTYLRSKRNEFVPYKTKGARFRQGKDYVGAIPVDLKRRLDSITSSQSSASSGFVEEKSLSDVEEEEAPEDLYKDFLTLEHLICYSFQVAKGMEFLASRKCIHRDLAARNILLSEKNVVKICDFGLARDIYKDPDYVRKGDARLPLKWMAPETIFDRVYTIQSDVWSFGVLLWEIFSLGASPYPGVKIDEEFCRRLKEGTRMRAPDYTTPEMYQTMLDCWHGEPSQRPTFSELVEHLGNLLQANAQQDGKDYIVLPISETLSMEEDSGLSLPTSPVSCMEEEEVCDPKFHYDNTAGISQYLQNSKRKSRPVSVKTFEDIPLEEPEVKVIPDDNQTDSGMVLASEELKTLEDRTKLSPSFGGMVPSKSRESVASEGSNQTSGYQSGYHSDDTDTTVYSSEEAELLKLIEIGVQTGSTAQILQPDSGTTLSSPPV
T3 sequence (P29317 24-976): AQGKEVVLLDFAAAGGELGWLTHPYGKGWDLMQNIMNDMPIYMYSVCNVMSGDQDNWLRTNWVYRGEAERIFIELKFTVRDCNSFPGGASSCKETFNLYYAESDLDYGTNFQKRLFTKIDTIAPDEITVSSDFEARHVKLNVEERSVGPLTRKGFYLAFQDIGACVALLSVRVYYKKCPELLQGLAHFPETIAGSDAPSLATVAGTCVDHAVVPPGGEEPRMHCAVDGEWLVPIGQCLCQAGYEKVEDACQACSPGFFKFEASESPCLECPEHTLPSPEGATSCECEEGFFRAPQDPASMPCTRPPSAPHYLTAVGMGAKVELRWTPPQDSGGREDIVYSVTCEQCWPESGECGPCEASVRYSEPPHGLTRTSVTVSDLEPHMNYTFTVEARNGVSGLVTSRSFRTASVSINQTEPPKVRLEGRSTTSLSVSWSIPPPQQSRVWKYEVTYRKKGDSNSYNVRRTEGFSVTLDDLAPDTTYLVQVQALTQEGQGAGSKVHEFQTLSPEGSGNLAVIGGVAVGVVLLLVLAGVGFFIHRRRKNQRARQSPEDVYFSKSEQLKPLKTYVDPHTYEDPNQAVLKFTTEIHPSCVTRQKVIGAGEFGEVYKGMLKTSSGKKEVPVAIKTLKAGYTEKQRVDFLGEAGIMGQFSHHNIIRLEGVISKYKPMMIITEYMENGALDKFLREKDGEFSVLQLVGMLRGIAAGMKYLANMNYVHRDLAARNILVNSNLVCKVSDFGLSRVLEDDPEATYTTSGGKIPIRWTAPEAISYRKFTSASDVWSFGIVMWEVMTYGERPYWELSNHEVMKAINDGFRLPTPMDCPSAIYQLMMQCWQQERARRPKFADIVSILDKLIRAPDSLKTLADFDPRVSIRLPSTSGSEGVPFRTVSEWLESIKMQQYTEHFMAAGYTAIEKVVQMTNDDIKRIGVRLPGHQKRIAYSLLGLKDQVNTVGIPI
T6 sequence (P09619 33-1106): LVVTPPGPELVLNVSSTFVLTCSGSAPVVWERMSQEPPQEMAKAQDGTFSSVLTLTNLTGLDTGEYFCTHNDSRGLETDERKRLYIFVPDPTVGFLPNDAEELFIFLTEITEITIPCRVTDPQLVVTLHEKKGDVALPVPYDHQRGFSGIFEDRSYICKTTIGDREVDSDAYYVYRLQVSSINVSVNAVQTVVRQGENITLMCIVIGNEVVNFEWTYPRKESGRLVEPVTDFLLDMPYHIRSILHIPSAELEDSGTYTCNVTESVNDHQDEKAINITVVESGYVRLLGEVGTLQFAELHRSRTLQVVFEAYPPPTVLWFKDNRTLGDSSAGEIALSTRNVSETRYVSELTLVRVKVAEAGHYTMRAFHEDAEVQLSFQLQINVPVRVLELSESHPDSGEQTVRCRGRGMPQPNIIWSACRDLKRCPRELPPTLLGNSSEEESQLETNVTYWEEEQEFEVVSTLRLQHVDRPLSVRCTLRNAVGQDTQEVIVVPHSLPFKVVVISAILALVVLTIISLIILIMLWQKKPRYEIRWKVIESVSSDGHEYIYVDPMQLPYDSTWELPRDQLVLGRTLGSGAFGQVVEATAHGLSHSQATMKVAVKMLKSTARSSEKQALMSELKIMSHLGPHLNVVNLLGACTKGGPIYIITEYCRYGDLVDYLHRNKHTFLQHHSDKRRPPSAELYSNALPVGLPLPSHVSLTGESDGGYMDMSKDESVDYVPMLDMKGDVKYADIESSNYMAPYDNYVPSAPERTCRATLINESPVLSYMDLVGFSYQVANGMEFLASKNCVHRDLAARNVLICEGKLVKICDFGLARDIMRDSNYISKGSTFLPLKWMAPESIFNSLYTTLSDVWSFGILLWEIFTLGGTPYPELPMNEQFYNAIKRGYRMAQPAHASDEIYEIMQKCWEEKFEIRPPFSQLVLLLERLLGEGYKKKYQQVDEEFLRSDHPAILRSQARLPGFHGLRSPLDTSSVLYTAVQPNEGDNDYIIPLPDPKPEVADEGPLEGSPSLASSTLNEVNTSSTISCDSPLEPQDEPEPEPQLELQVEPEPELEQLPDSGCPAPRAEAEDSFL
T5 sequence (P10721 552-976 limits assumed): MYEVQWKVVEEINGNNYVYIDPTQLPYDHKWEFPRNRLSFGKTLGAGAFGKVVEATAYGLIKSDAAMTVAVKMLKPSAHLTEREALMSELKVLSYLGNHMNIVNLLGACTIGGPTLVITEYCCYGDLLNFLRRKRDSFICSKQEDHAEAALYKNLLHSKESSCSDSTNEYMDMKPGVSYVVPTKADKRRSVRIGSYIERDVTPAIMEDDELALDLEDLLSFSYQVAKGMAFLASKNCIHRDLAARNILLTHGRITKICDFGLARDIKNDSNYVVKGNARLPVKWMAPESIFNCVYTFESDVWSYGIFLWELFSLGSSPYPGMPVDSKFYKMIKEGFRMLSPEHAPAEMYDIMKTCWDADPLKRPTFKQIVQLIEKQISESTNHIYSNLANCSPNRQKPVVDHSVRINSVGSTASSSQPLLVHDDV

For `Cc1cccc(C(=O)Nc2ccc(C)c([C@H](C)Nc3cncc(Cl)n3)c2)c1` [Compound 168], the inhibition at 0.1 µM amounted to 85% against Lck(h), 53% against cSRC(h) and 102% against EphA2(h). The inhibition at 1 µM was determined as 98% at Lck(h), 95% at cSRC(h) and 103% at EphA2(h).

In the case of `Cc1cccc(C(=O)Nc2cccc([C@H](C)Nc3cncc(-c4ccc(S(N)(=O)=O)cc4)n3)c2)c1` [Compound 77], the inhibition at 0.1 µM was 45% at Lck(h), 23% on cSRC(h) and 87% on EphA2(h). For the same compound, the inhibition at 1 µM was found to be 84% against Lck(h), 74% at cSRC(h) and 102% at EphA2(h). Besides, the IC50 on KDR protein kinase is less than 100 nM; in assay [1] it was less than 100 nM; in the assay with mNFS-60, less than 200 nM; on PDGFR β tyrosine kinase, less than 1000 nM.

Consider `C[C@H](Nc1cncc(-c2cccc(N3CCOCC3)c2)n1)c1cccc(NC(=O)c2cccc(C(F)(F)F)c2)c1` [Compound 149], for which the inhibition at 0.1 µM against Lck(h) was determined as 68%; against cSRC(h), 69%; against EphA2(h), 96%. Besides, the figures for the inhibition at 1 µM against Lck(h), on cSRC(h) and against EphA2(h) were 95%, 96% and 102%, respectively. For the same compound, the IC50 on KDR protein kinase is less than 100 nM; in assay [1], less than 1000 nM; in the assay on mNFS-60, less than 1000 nM; at PDGFR β tyrosine kinase, less than 100 nM.

Take `Cc1cccc(C(=O)Nc2cccc([C@H](C)Nc3cncc(-c4cccc(N5CCOCC5)c4)n3)c2)c1` [Compound 147]: the values for the inhibition at 0.1 µM against Lck(h), against cSRC(h) and against EphA2(h) were 50%, 45% and 97%, respectively. For the same compound, the inhibition at 1 µM against Lck(h) worked out at 89%; on cSRC(h), 87%; at EphA2(h), 102%. For the same compound, the half-inhibitory concentration (IC50) was less than 100 nM at KDR protein kinase, less than 100 nM in assay [1], less than 200 nM in the assay with mNFS-60 and less than 100 nM at PDGFR β tyrosine kinase.

As to `C[C@H](Nc1cncc(Cl)n1)c1cccc(NC(=O)c2cccc(C(F)(F)F)c2)c1` [Compound 114, (S)—N-(3-(1-(6-chloropyrazin-2-ylamino)ethyl)phenyl)-3-(trifluoromethyl)benzamide], the inhibition at 0.1 µM against Lck(h) stood at 53%; against cSRC(h) it was 24%; against EphA2(h), 96%. Also, the figures for the inhibition at 1 µM on Lck(h), on cSRC(h) and against EphA2(h) were 90%, 80% and 101%, respectively. Besides, the concentration for half-maximal inhibition (IC50) is less than 100 nM at KDR protein kinase, less than 1000 nM in assay [1], less than 1000 nM with mNFS-60 and less than 100 nM against PDGFR β tyrosine kinase.

For the compound `C[C@H](Nc1cncc(-c2ccc(N3CCN(C)CC3)cc2)n1)c1cccc(NC(=O)c2cccc(C(F)(F)F)c2)c1` [Compound 148], the inhibition at 0.1 µM came to 95% on Lck(h), 86% against cSRC(h) and 93% against EphA2(h). The inhibition at 1 µM against Lck(h) came out at 97%; at cSRC(h), 96%; against EphA2(h), 102%. In addition, the half-inhibitory concentration (IC50) is less than 100 nM at KDR protein kinase, less than 100 nM in assay [1], less than 200 nM in the assay with mNFS-60 and less than 100 nM at PDGFR β tyrosine kinase.

Regarding `Cc1cccc(C(=O)Nc2cccc([C@H](C)Nc3cncc(C(N)=O)n3)c2)c1` [Compound 133, (S)-6-(1-(3-(3-methylbenzamido)phenyl)ethylamino)pyrazine-2-carboxamide], the inhibition at 0.1 µM came out at 0% against Lck(h), 1% against cSRC(h) and 69% at EphA2(h). Besides, the figures for the inhibition at 1 µM against Lck(h), on cSRC(h) and at EphA2(h) were 16%, 14% and 99%, respectively. Besides, the concentration for half-maximal inhibition (IC50) was less than 100 nM on KDR protein kinase, less than 100 nM in assay [1], less than 200 nM with mNFS-60 and less than 100 nM on PDGFR β tyrosine kinase.

With `Cc1cccc(C(=O)Nc2cccc([C@H](C)Nc3cncc(-n4ccnc4)n3)c2)c1` [Compound 143, (S)—N-(3-(1-(6-(1H-imidazol-1-yl)pyrazin-2-ylamino)ethyl)phenyl)-3-methylbenzamide], the inhibition at 0.1 µM came out at 24% against Lck(h), 14% against cSRC(h) and 80% at EphA2(h). Further, the results for the inhibition at 1 µM against Lck(h), against cSRC(h) and against EphA2(h) were 77%, 65% and 99%, respectively. Besides, the IC50 against KDR protein kinase was less than 100 nM; in assay [1], less than 100 nM; in the assay with mNFS-60, less than 200 nM; on PDGFR β tyrosine kinase it was less than 100 nM.

As for `Cc1cccc(C(=O)Nc2cccc([C@H](C)Nc3cncc(-c4ccc(N5CCN(C)CC5)cc4)n3)c2)c1` [Compound 129], the inhibition at 0.1 µM against Lck(h) was 73%; at cSRC(h), 38%; against EphA2(h) it was 24%. In addition, the inhibition at 1 µM against Lck(h) is 96%; at cSRC(h), 85%; on EphA2(h), 93%. The 50% inhibitory concentration (IC50) is less than 100 nM at KDR protein kinase, less than 100 nM in assay [1], less than 200 nM in the assay with mNFS-60 and less than 100 nM on PDGFR β tyrosine kinase.
